Tested on: 922993-354-T-J3-PDC complex spheroid viability
Test: Anticancer human tumor 922993-354-T-J3-PDC patient-derived endometrial carcinoma cell line growth inhibition [POLQ]
Details: for IC50: curve of first compound; for viability, T/C: stronger effect = lower value
Method in brief: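 Patient-derived tumour cells were co-cultured with HUVEC and mesenchymal stem cells as multicellular spheroids at 37 °C. They were treated with POLQ inhibitors (novobiocin, ART-558, RP6685) alone or combined with other agents. Top concentrations were at or near clinical Cmax (otherwise 10 microM; SN-38 at 1 microM), decreasing in half-log steps.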
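Further: spheroids exposed to the agents for one week.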
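Wherever viability, T/C is given: 100% = DMSO vehicle control wells.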

`CC(=O)O[C@H]1C(=O)[C@@]2(C)[C@H]([C@H](OC(=O)c3ccccc3)[C@]3(O)C[C@H](OC(=O)[C@H](O)[C@@H](NC(=O)c4ccccc4)c4ccccc4)C(C)=C1C3(C)C)[C@]1(OC(C)=O)CO[C@@H]1C[C@@H]2O` + Cc1cccc(N(C)C(=O)C2C(O)CCN2c2nc(C)cc(C(F)(F)F)c2C#N)c1 was tested, and the IC50 (second compound 0.0316 µM) was over 3000 nM, the IC50 (second compound 0.1 µM) was over 3000 nM and the IC50 (second compound 0.316 µM) was over 3000 nM. For the same compound, the IC50 (second compound 1 µM) was over 3000 nM, the IC50 (second compound 3.16 µM) was over 3000 nM and the IC50 (second compound 10 µM) was over 3000 nM. It also gave a viability, T/C (second compound 0.0316 µM, first compound 0.00949 µM) of 100%, a viability, T/C (second compound 0.0316 µM, first compound 0.03 µM) of 102% and a viability, T/C (second compound 0.0316 µM, first compound 0.0949 µM) of 101%. For the same compound, the viability, T/C (second compound 0.0316 µM, first compound 0.3 µM) was 103%, the viability, T/C (second compound 0.0316 µM, first compound 0.949 µM) was 98.5% and the viability, T/C (second compound 0.0316 µM, first compound 3 µM) was 76.6%. It also gave a viability, T/C (second compound 0.1 µM, first compound 0.00949 µM) of 105%, a viability, T/C (second compound 0.1 µM, first compound 0.03 µM) of 107% and a viability, T/C (second compound 0.1 µM, first compound 0.0949 µM) of 99.4%. For the same compound, the viability, T/C (second compound 0.1 µM, first compound 0.3 µM) was 99.8%, the viability, T/C (second compound 0.1 µM, first compound 0.949 µM) was 98.9% and the viability, T/C (second compound 0.1 µM, first compound 3 µM) was 66.9%. It also gave a viability, T/C (second compound 0.316 µM, first compound 0.00949 µM) of 104%, a viability, T/C (second compound 0.316 µM, first compound 0.03 µM) of 103% and a viability, T/C (second compound 0.316 µM, first compound 0.0949 µM) of 99.9%. It also gave a viability, T/C (second compound 0.316 µM, first compound 0.3 µM) of 103%, a viability, T/C (second compound 0.316 µM, first compound 0.949 µM) of 95.5% and a viability, T/C (second compound 0.316 µM, first compound 3 µM) of 73.3%. For the same compound, the viability, T/C (second compound 1 µM, first compound 0.00949 µM) was 104%, the viability, T/C (second compound 1 µM, first compound 0.03 µM) was 98.2% and the viability, T/C (second compound 1 µM, first compound 0.0949 µM) was 99%. The viability, T/C (second compound 1 µM, first compound 0.3 µM) was 101%, the viability, T/C (second compound 1 µM, first compound 0.949 µM) was 91.8% and the viability, T/C (second compound 1 µM, first compound 3 µM) was 64.8%. For the same compound, the viability, T/C (second compound 3.16 µM, first compound 0.00949 µM) was 99.8%, the viability, T/C (second compound 3.16 µM, first compound 0.03 µM) was 105% and the viability, T/C (second compound 3.16 µM, first compound 0.0949 µM) was 100%. For the same compound, the viability, T/C (second compound 3.16 µM, first compound 0.3 µM) was 95%, the viability, T/C (second compound 3.16 µM, first compound 0.949 µM) was 70.5% and the viability, T/C (second compound 3.16 µM, first compound 3 µM) was 63.5%. The viability, T/C (second compound 10 µM, first compound 0.00949 µM) was 97.3%, the viability, T/C (second compound 10 µM, first compound 0.03 µM) was 99.3% and the viability, T/C (second compound 10 µM, first compound 0.0949 µM) was 75.5%. For the same compound, the viability, T/C (second compound 10 µM, first compound 0.3 µM) was 66.7%, the viability, T/C (second compound 10 µM, first compound 0.949 µM) was 63.3% and the viability, T/C (second compound 10 µM, first compound 3 µM) was 48.7%.
`Cn1ncnc1[C@H]1c2n[nH]c(=O)c3cc(F)cc(c23)N[C@@H]1c1ccc(F)cc1` + Nc1ccc(C#CCN(C(=O)Cc2ncc(C(F)(F)F)cc2C(F)(F)F)c2ccc(F)cc2)nn1 gave an IC50 (second compound 0.0316 µM) of over 100 nM, an IC50 (second compound 0.1 µM) of over 100 nM and an IC50 (second compound 0.316 µM) of over 100 nM. For the same compound, the IC50 (second compound 1 µM) was over 100 nM, the IC50 (second compound 3.16 µM) was over 100 nM and the IC50 (second compound 10 µM) was over 100 nM. For the same compound, the viability, T/C (second compound 0.0316 µM, first compound 0.000316 µM) was 97.9%, the viability, T/C (second compound 0.0316 µM, first compound 0.001 µM) was 102% and the viability, T/C (second compound 0.0316 µM, first compound 0.00316 µM) was 101%. For the same compound, the viability, T/C (second compound 0.0316 µM, first compound 0.01 µM) was 98.3%, the viability, T/C (second compound 0.0316 µM, first compound 0.0316 µM) was 101% and the viability, T/C (second compound 0.0316 µM, first compound 0.1 µM) was 89.2%. The viability, T/C (second compound 0.1 µM, first compound 0.000316 µM) was 107%, the viability, T/C (second compound 0.1 µM, first compound 0.001 µM) was 102% and the viability, T/C (second compound 0.1 µM, first compound 0.00316 µM) was 102%. The viability, T/C (second compound 0.1 µM, first compound 0.01 µM) was 98.1%, the viability, T/C (second compound 0.1 µM, first compound 0.0316 µM) was 102% and the viability, T/C (second compound 0.1 µM, first compound 0.1 µM) was 86.5%. It also gave a viability, T/C (second compound 0.316 µM, first compound 0.000316 µM) of 104%, a viability, T/C (second compound 0.316 µM, first compound 0.001 µM) of 106% and a viability, T/C (second compound 0.316 µM, first compound 0.00316 µM) of 100%. For the same compound, the viability, T/C (second compound 0.316 µM, first compound 0.01 µM) was 96.6%, the viability, T/C (second compound 0.316 µM, first compound 0.0316 µM) was 96% and the viability, T/C (second compound 0.316 µM, first compound 0.1 µM) was 89.6%. It also gave a viability, T/C (second compound 1 µM, first compound 0.000316 µM) of 105%, a viability, T/C (second compound 1 µM, first compound 0.001 µM) of 101% and a viability, T/C (second compound 1 µM, first compound 0.00316 µM) of 98.7%. It also gave a viability, T/C (second compound 1 µM, first compound 0.01 µM) of 98.1%, a viability, T/C (second compound 1 µM, first compound 0.0316 µM) of 96.8% and a viability, T/C (second compound 1 µM, first compound 0.1 µM) of 86.2%. The viability, T/C (second compound 3.16 µM, first compound 0.000316 µM) was 102%, the viability, T/C (second compound 3.16 µM, first compound 0.001 µM) was 99% and the viability, T/C (second compound 3.16 µM, first compound 0.00316 µM) was 93%. For the same compound, the viability, T/C (second compound 3.16 µM, first compound 0.01 µM) was 95.4%, the viability, T/C (second compound 3.16 µM, first compound 0.0316 µM) was 89.2% and the viability, T/C (second compound 3.16 µM, first compound 0.1 µM) was 82.6%. The viability, T/C (second compound 10 µM, first compound 0.000316 µM) was 101%, the viability, T/C (second compound 10 µM, first compound 0.001 µM) was 94.9% and the viability, T/C (second compound 10 µM, first compound 0.00316 µM) was 94.8%. The viability, T/C (second compound 10 µM, first compound 0.01 µM) was 85.7%, the viability, T/C (second compound 10 µM, first compound 0.0316 µM) was 71.9% and the viability, T/C (second compound 10 µM, first compound 0.1 µM) was 53.4%.

Source: PubChem BioAssay AID1963830 (Molecular Pharmacology Branch, DTP, NCI, 2024)
